pIC50: −log10 of the molar value.
Biological target: cAMP and cAMP-inhibited cGMP 3',5'-cyclic phosphodiesterase 10A (Homo sapiens, UniProt Q9Y233)
Test: PDE10A assay
Method in brief: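 Scintillation proximity readout of [3H]cGMP hydrolysis (50 nM final substrate, 15 min) by 2 ng/well human PDE10A after 15 min compound preincubation at RT, pH 7.5 with MgCl2. Four-parameter logistic fit gave IC50, reported as pIC50.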

Row | Compound | pIC50
1 | O=C(NCCc1cccc(C(F)(F)F)c1)c1nc(C2CC2)cnc1Nc1cncnc1 [Roche-Dataset for PDE10A, Compound 491] | 7.08
2 | Cc1c(Cl)cc(C(F)(F)F)c2nc(CCc3nc(N4CCCC4)nn3C)nn12 [Roche-Dataset for PDE10A, Compound 157] | 8.96
3 | O=C(Nc1ccnc(C(=O)N2CCCCC2)c1)c1nc(C2CC2)cnc1Nc1cncnc1 [Roche-Dataset for PDE10A, Compound 730] | 7.17
4 | CN(CCO)C(=O)c1cnn(C)c1C(=O)Nc1ccn2nc(N3CCOCC3)nc2c1 [Roche-Dataset for PDE10A, Compound 276] | 7.70
5 | CNC(=O)c1cc2[nH]c(-c3ccccc3)nc2cc1NC(=O)c1c(C(=O)N2CCOCC2)cnn1C [Roche-Dataset for PDE10A, Compound 453] | 6.71
6 | Cc1nc(C(=O)N2CCC2)c(C(=O)Nc2ccn3nc(-c4ccccc4)nc3c2)n1C [Roche-Dataset for PDE10A, Compound 75] | 7.70
7 | Cc1nc(-c2ccccc2Cl)n2c3cc(Cl)ccc3c(=O)n(C)c12 [Roche-Dataset for PDE10A, Compound 987] | 8.18
8 | O=C(NC1CCN(c2ccccn2)CC1)c1nc(C2CC2)ccc1Nc1cncnc1 [Roche-Dataset for PDE10A, Compound 1045] | 6.71
9 | CN(C)C(=O)Cn1ccc(NC(=O)c2nc(C3CC3)cnc2Nc2cncnc2)n1 [Roche-Dataset for PDE10A, Compound 882] | 7.49
10 | Cc1ccc(CNC(=O)c2cnn(C)c2C(=O)Nc2ccn3cc(-c4ccccc4)nc3n2)nc1 [Roche-Dataset for PDE10A, Compound 862] | 6.49
11 | CN(C)C(=O)c1cc(NC(=O)c2nc(C3CC3)ccc2Nc2cncnc2)nn1C [Roche-Dataset for PDE10A, Compound 1005] | 6.17
12 | O=C(Nc1ccc2cc(-c3ccccc3)nn2c1)c1ccno1 [Roche-Dataset for PDE10A, Compound 679] | 5.63
13 | Cn1nc(-c2ccc3ccccc3n2)cc1NC(=O)c1nc(C2CC2)ccc1Nc1cncnc1 [US8470820, 40] | 10.10
14 | Cc1nc2ccccc2nc1CCc1nc(-c2ccccc2)cn1CC1CC1 [Roche-Dataset for PDE10A, Compound 62] | 8.03
15 | CC(C)(C)CCNC(=O)c1nc(C2CC2)cnc1Nc1cncnc1 [Roche-Dataset for PDE10A, Compound 1022] | 5.63
16 | O=C(Nc1nc(CN2CCCCC2)cs1)c1nc(C2CC2)cnc1Nc1cncnc1 [Roche-Dataset for PDE10A, Compound 832] | 7.49
17 | Cc1c(Cl)cc(Cl)c2nc(CCc3cn4cccnc4n3)nn12 [Roche-Dataset for PDE10A, Compound 785] | 6.44
18 | Cc1cc(C)n2nc(CCc3ncnn3C)nc2n1 [Roche-Dataset for PDE10A, Compound 1159] | 5.00
19 | CS(=O)(=O)CCNC(=O)c1nc(C2CC2)cnc1Nc1cncnc1 [Roche-Dataset for PDE10A, Compound 1061] | 5.79
20 | O=C(Nc1ccncc1F)c1ccc2cc(-c3ccccc3)nn2c1 [Roche-Dataset for PDE10A, Compound 471] | 6.03
21 | O=C(Nc1cc(-c2cccc(Cl)n2)nn1CCO)c1nc(C2CC2)ccc1Nc1cncnc1 [US8470820, 24] | 8.85
22 | O=C(Nc1cc2nc(-c3ccccc3)cn2cc1Br)c1nc(C2CC2)ccc1Nc1cncnc1 [Roche-Dataset for PDE10A, Compound 354] | 8.94

Row | Compound | pIC50
23 | CN(CCO)c1nc(OCc2nc(-c3ccccc3)cn2C)nc2ccc(Cl)cc12 [Roche-Dataset for PDE10A, Compound 19] | 8.51
24 | Cc1noc(C(F)(F)F)c1C(=O)Nc1ccn2nc(-c3ccccc3)nc2c1 [Roche-Dataset for PDE10A, Compound 478] | 5.03
25 | Cn1ccc(NC(=O)c2nc(C3CC3)ccc2Nc2cncnc2)n1 [Roche-Dataset for PDE10A, Compound 883] | 6.93
26 | Cc1nc2ccc(Cl)cc2nc1OCc1nc(-c2ccccc2)cn1C [Roche-Dataset for PDE10A, Compound 769] | 8.20
27 | Cn1ncc(C(=O)N2CCOCC2)c1C(=O)N[C@@H]1CCn2cc(-c3ccc(F)cc3)nc2C1 [Roche-Dataset for PDE10A, Compound 346] | 5.36
28 | Cc1nc2ccccc2nc1CCc1nc(-c2ccccc2)cn1CC(F)(F)F [Roche-Dataset for PDE10A, Compound 72] | 6.75
29 | COCCN(C)c1nc(CCc2nc3c(C)ncc(C)n3n2)nn1C [Roche-Dataset for PDE10A, Compound 847] | 5.75
30 | COC(=O)c1cnn(C)c1C(=O)Nc1ccn2nc(-c3ccccc3)nc2c1 [Roche-Dataset for PDE10A, Compound 378] | 7.82
31 | O=C(NCCC(=O)N1CCOCC1)c1nc(C2CC2)cnc1Nc1cncnc1 [Roche-Dataset for PDE10A, Compound 591] | 5.82
32 | Cc1nc2ccc(NC(=O)c3c(C(=O)N4CCC4)cnn3C)cn2n1 [Roche-Dataset for PDE10A, Compound 1007] | 5.43
33 | O=C(NCc1ccc2nccnc2c1)c1nc(C2CC2)cnc1Nc1cncnc1 [Roche-Dataset for PDE10A, Compound 699] | 6.85
34 | COc1ccc(NC(=O)c2nc(C3CC3)cnc2Nc2cncnc2)nn1 [Roche-Dataset for PDE10A, Compound 1054] | 5.83
35 | O=C(NCC1(c2ccccc2)CCCCC1)c1nc(C2CC2)cnc1Nc1cncnc1 [Roche-Dataset for PDE10A, Compound 804] | 6.14
36 | Cn1cc(-c2ccccc2)nc1/C=C/c1ncc(Cl)nc1Cl [Roche-Dataset for PDE10A, Compound 465] | 6.08
37 | Cn1ncc(C(=O)N2CCC2)c1C(=O)Nc1ccn2nc(-c3cccc(OCCF)n3)nc2c1 [Roche-Dataset for PDE10A, Compound 66] | 8.27
38 | Cc1cc(CNC(=O)c2cnn(C)c2C(=O)Nc2ccn3cc(-c4ccccc4)nc3n2)n[nH]1 [Roche-Dataset for PDE10A, Compound 99] | 7.77
39 | Cn1ncc(CO)c1C(=O)Nc1ccn2nc(-c3ccccc3)nc2c1 [Roche-Dataset for PDE10A, Compound 287] | 7.28
40 | O=C(Nc1ccccc1C(=O)C1CCCCC1)c1nc(C2CC2)cnc1Nc1cncnc1 [Roche-Dataset for PDE10A, Compound 667] | 7.89
41 | Cc1ncc(C)n2nc(CCc3nc(-n4cccn4)nn3C)nc12 [Roche-Dataset for PDE10A, Compound 836] | 6.77
42 | COc1cnc(C)n2nc(CCc3nc(N4CCCC4)nn3C)nc12 [Roche-Dataset for PDE10A, Compound 671] | 7.96
43 | CNC(=O)c1nn(C)cc1NC(=O)c1nc(C2CC2)ccc1N(C)c1cncnc1 [Roche-Dataset for PDE10A, Compound 1122] | 5.00
44 | COc1cccc(-c2cn3c(n2)C[C@H](NC(=O)c2c(C(=O)N4CCC4)cnn2C)CC3)c1 [Roche-Dataset for PDE10A, Compound 148] | 6.04

Row | Compound | pIC50
45 | Cc1nc2ccccc2nc1OCc1nc(-c2ccc(Cl)cc2)cn1C [Roche-Dataset for PDE10A, Compound 810] | 6.75
46 | CCc1nc(C)c(C(=O)Nc2cc3nc(-c4ccccc4)[nH]c3cc2C(=O)O)o1 [Roche-Dataset for PDE10A, Compound 424] | 5.87
47 | Cc1cc(NC(=O)c2c(C(=O)N3CCC3)cnn2C)nn1CC(F)F [Roche-Dataset for PDE10A, Compound 1050] | 6.87
48 | O=C(Nc1cncc(OC(F)F)c1)c1nc(C2CC2)cnc1Nc1cncnc1 [Roche-Dataset for PDE10A, Compound 855] | 6.87
49 | Cc1ncc(C)n2nc(CCc3nc(C4CCCC4)nn3C)nc12 [Roche-Dataset for PDE10A, Compound 956] | 6.84
50 | O=C(NCCCS(=O)(=O)c1ccccc1)c1nc(C2CC2)cnc1Nc1cncnc1 [Roche-Dataset for PDE10A, Compound 665] | 6.09
51 | Cc1c(Cl)ccc2nc(CCc3nc4ccc(Cl)c(C)n4n3)nn12 [Roche-Dataset for PDE10A, Compound 512] | 6.33
52 | O=C(NCCNS(=O)(=O)c1ccccc1)c1nc(C2CC2)cnc1Nc1cncnc1 [Roche-Dataset for PDE10A, Compound 839] | 6.39
53 | Cc1nnc2c(C(=O)NCCc3nc(-c4ccccc4)cn3C)cccn12 [Roche-Dataset for PDE10A, Compound 166] | 7.02
54 | O=C(Nc1cnc(Cl)cn1)c1nc(C2CC2)ccc1Nc1cncnc1 [Roche-Dataset for PDE10A, Compound 1090] | 6.84
55 | Cn1nc(-c2ccc(Cl)cn2)cc1NC(=O)c1nc(C2CC2)ccc1Nc1cncnc1 [US8470820, 39] | 8.50
56 | O=C(NCCS(=O)(=O)c1ccccc1)c1nc(C2CC2)cnc1Nc1cncnc1 [Roche-Dataset for PDE10A, Compound 746] | 5.46
57 | Cn1nccc1NC(=O)c1nc(C2CC2)ccc1Nc1cncnc1 [Roche-Dataset for PDE10A, Compound 1033] | 6.98
58 | Cn1ncc(S(C)(=O)=O)c1C(=O)Nc1ccc2cc(-c3ccccc3)nn2c1 [Roche-Dataset for PDE10A, Compound 410] | 6.75
59 | Cc1ncc(C)n2nc(/C=C/c3nc(Br)cn3C3CC3)nc12 [Roche-Dataset for PDE10A, Compound 964] | 5.18
60 | COc1ccccc1-c1cn2c(n1)C[C@H](NC(=O)c1c(C(=O)N(C)C)cnn1C)CC2 [Roche-Dataset for PDE10A, Compound 473] | 8.09
61 | CC(C)(C)CC(C)(C)NC(=O)c1nc(C2CC2)cnc1Nc1cncnc1 [Roche-Dataset for PDE10A, Compound 976] | 6.08
62 | O=C(NCCc1ccc(C(F)(F)F)cc1)c1nc(C2CC2)cnc1Nc1cncnc1 [Roche-Dataset for PDE10A, Compound 383] | 6.60
63 | CCOC(=O)c1cnn(C)c1C(=O)Nc1ccn2nc(-c3ccccc3OC)nc2c1 [Roche-Dataset for PDE10A, Compound 220] | 7.92
64 | O=C(NCc1cc(F)cc(F)c1)c1nc(C2CC2)cnc1Nc1cncnc1 [Roche-Dataset for PDE10A, Compound 783] | 5.98

— BindingDB's records for doi:10.1007/s10822-022-00478-x (Roche Innovation Center Basel, F. Hoffmann-La Roche Ltd., 2022)
